Assay [1] relates to L1210. Put plainly: Tested for the effect of stereochemistry on the growth of L1210 mouse leukemia cell line in vitro. The format is functional, cell-based.
The test system of assay [2] is Mus musculus. Description: Tested for body weight of CDF1 mice bearing P388 leukemia at dose of 250 mg/kg/day on day 5. The format is functional.
The subject of assay [3] is Mus musculus. Put plainly: Tested for body weight of CDF1 mice bearing P388 leukemia at dose of 20 mg/kg/day on day 1. The format is functional.
Assay [4] has as its system Mus musculus. Put plainly: Tested for body weight of CDF1 mice bearing P388 leukemia at dose of 100 mg/kg/day on day 1. The format is functional.
The test system of assay [5] is Mus musculus. Put plainly: Tested for mean survival time of tested group to that of mean survival time of control group of mice bearing P388 leukemia at dose of 100 mg/kg/day. It is filed as functional.
Assay [6] concerns Mus musculus. Description: Tested for mean survival time of tested group to that of mean survival time of control group of mice bearing P388 leukemia at dose of 250 mg/kg/day. The format is functional.
Assay [7] concerns Mus musculus. Description: Tested for body weight of CDF1 mice bearing P388 leukemia at dose of 100 mg/kg/day on day 5. The format is functional.
Assay [8] has as its system Mus musculus. Description: Tested for body weight of CDF1 mice bearing P388 leukemia at dose of 250 mg/kg/day on day 1. The format is functional.
In assay [9] the test system is Mus musculus. Put plainly: Tested for body weight of CDF1 mice bearing P388 leukemia at dose of 20 mg/kg/day on day 5. The format is functional.
For assay [10], the system named is Mus musculus. Put plainly: Tested for mean survival time of tested group to that of mean survival time of control group of mice bearing P388 leukemia at dose of 20 mg/kg/day. The format is functional.
Assay [11] concerns L1210. Description: Concentration at 50 percent inhibition of cell growth against mouse leukemia 1210 cell line in vitro. It is filed as functional, cell-based.
Assay [12] relates to PC10. Put plainly: Concentration at 50 percent inhibition of cell growth against human cancer PC10 cell line in vitro. It is filed as functional, cell-based.
For another assay, the system named is CCRF-CEM. Put plainly: Concentration at 50 percent inhibition of cell growth against human leukemia CCRF CEM cell line in vitro. The format is functional, cell-based.
Another assay deals with KB. Put plainly: Concentration at 50 percent inhibition of cell growth against human cancer KB cell line in vitro. The format is functional, cell-based.
The test system of assay [13] is PC10. Description: Concentration at 50 percent inhibition of cell growth against human […] cell line in vitro. It is filed as functional, cell-based.

SMILES strings stand for the structures. In brackets after ≈: the same amount, converted by molar mass.

The IC50 is the concentration that gives 50% inhibition. Read a low IC50 as higher potency. On to `C[C@@H](O)[C@@H](N)C(=O)O` [D-allothreonine], for which, in the assay with L1210 [1], the half-maximal inhibitory concentration (IC50) is greater than 100 µg/mL.
By T/C is commonly meant the result in the treated group divided by that in the control group, in per cent. Take `C[C@H](O)[C@H](N)C(=O)O`: the Body weight in the assay with Mus musculus [2] came out at 22 g; with Mus musculus [3] it was 22 g; in the assay on Mus musculus [4], 21.3 g; in the assay on Mus musculus [7], 21.7 g; in the assay with Mus musculus [8], 22.7 g; in the assay with Mus musculus [9], 22 g. For the same compound, in the assay with L1210 [1], half-maximal inhibition (IC50) required 2.8 µg/mL (≈ 23.5 µM). Besides, the figures for the T/C in the assay with Mus musculus [5], in the assay on Mus musculus [6] and in the assay with Mus musculus [10] were 122%, 170% and 114%, respectively.
On to `O=c1[nH]cc(F)c(=O)[nH]1` [FLUOROURACIL], for which the IC50 in the assay on L1210 [11] amounted to 0.36 µg/mL (≈ 2.77 µM); in the assay on PC10 [12], 42 µg/mL (≈ 323 µM); with CCRF-CEM it was 0.95 µg/mL (≈ 7.3 µM); in the assay on KB, 12.1 µg/mL (≈ 93 µM).
As for `NC(C(=O)O)C(O)C(F)F` (racemic), the 50% inhibitory concentration (IC50) with L1210 [1] was determined as 3.3 µg/mL (≈ 21.3 µM); in the assay on PC10 [13], 5.1 µg/mL (≈ 32.9 µM); with L1210 [11], 1.1 µg/mL (≈ 7.09 µM); in the assay on CCRF-CEM, 1.7 µg/mL (≈ 11 µM); in the assay on KB, 2.7 µg/mL (≈ 17.4 µM).

For the origin of these results see ChEMBL document CHEMBL1125989, “Preparation and evaluation of optically active 4,4-difluorothreonine as a potent novel antitumor material” (Bioorg Med Chem Lett, 1991).
